From patent US9303005B2, “Use of dibenzofuranone derivatives to inhibit kinases” (priority 2010, dated 2016)
Blank lines part the entries; values can stand above or below the molecule they belong to.

Tests used:
[1] = prior art; lactam ring hydrolysis; cited from earlier work
CK2 = conditions: prior-art value; read-out: IC50 (CK2, literature); cited from earlier work
[2] = prior art; cited from earlier work
LNCaP cells = test: MTT test, viability of LNCaP cells; assay type: cell-based, human; conditions: relative to untreated cells; for viability at 75 µM / viability at 25 µM / viability at 50 µM: Homo sapiens, LNCaP
Protocol: The viability was determined with the aid of the MTT test.
A MTT test was used to determine the effect of TF on the viability of LNCaP cells. To this end, these cell lines were treated with three concentrations of TF (25 μM, 50 μM, 75 μM). The effect was determined after 24 h, 48 h and 72 h as the relative viability compared with untreated cells. […] After treating the LNCaP cells with TF, both the effects of increasing the concentration and also of prolonging the incubation time could be recorded. After 24 hours incubation with 25 μM of TF, the viability had already dropped to 45% and after the same incubation time with 50 μM of TF, it had dropped further to 30%. […] The effects after 24 h could be reinforced in each case by extending the incubation time. Thus, after 48 hours incubation with 25 μM, 50 μM and 75 μM of TF, a viability of 37%, 15% or 12% was observed. […] Thus, an incubation time of 24 h had only a small effect. […] Only at the highest concentration of 75 μM, a reduction to 45% after 48 h was recorded, and after 72 h, the viability was still 17% (FIG. 5B). […] In summary, it has been shown that the viability of LNCaP cells is reduced by both substances.

[3] = tested on: PARP cleavage in LNCaP cells; test: PARP cleavage in LNCaP cells (Western Blot); assay type: cell-based, human
Protocol: The controls were cells which had only been treated with DMSO (0 μM). After SDS-PAGE and Western Blotting, complete PARP (115 kDa) and the 89 kDa fragment obtained after caspase cleavage with the aid of an anti-PARP antibody were labelled.
Next, we investigated whether the TF-mediated reduction in cell viability could be related to apoptotic events. To this end, cleavage of poly(ADP-ribose)-polymerase (PARP) in cells was assayed. Caspase 3 cleaves the 115 kDa PARP into two stable fragments: the 24 kDa DNA-binding N-terminal domain and the 89 kDa C-terminal fragment. This specific proteolysis of PARP characterizes the irreversible point of initiation apoptosis and can be assayed in a Western Blot of cell lysates with a specific PARP antibody. […] This effect was observed both after an incubation time of 24 h and also, more strongly, after 48 h.

[4] = tested on: endogenous CK2 of LNCaP cells; test: CK2 activity in lysates of treated LNCaP cells (radiometric test); assay type: cell-based, human; conditions: for endogenous CK2 activity of LNCaP cells: from 25 μM, 24 h or 48 h, relative to untreated cells
Protocol: The CK2 activity was determined using a radiometric test procedure. The relative activities of the samples were each relative to untreated cells. White bars show the CK2 activity after 24 h; grey bars show the CK2 activity after 48 h incubation with each inhibitor. For samples (A) treated with TF, double determinations were carried out (the mean value is given in each case).
LNCaP cells were incubated with TF in the same manner as in the experiments described above. After 24 h or 48 h, the CK2 activity of lysates was measured using radiometric CK2 testing. This investigation provided an indication as to whether the inhibition of TF found with the isolated enzyme could be observed in cellular systems. […] Cells were incubated for 24 h or 48 h with 25 μM, 50 μM or 75 μM of TF and then washed and lysed. The relative CK2 activity was calculated from these cell lysates. The reference was the CK2 activity of cell lysates from untreated cells incubated for corresponding periods. In order to compensate for any fluctuations in the radiometric test, in the case of TF, two samples per parameter were measured. As a qualitative control, the TBB samples were used and measured individually.
The observed reduction in CK2 activity was thus due to modulation of the CK2 enzyme activity. […] Altogether, it can be seen that TF reduces the endogenous CK2 activity in LNCaP cells. […] Proof of the inhibition of intracellular CK2 is provided by the ability of TF to permeate cells.

CK2 holoenzyme = CK2 holoenzyme (Homo sapiens (Human), UniProt P68400); test: capillary electrophoretic CK2 inhibition/activity test (E-peptide substrate); assay type: biochemical; conditions: for CK2-activity at 10 μM: residual CK2 activity at 10 μM substance, values below 4% not reliably quantifiable; for IC50: capillary electrophoretic test, ten minutes pre-incubation
Protocol: To this end, the capillary electrophoretic CK2 inhibition test using E-peptide as the substrate was carried out. […] Ten concentrations between 0.0001 μM and 10 μM were investigated for this purpose.
Kuckländer (Kuckländer and Töberich, 1982; Bollig, 2007).

PIM1 = PIM1 (Homo sapiens (Human), UniProt P11309); test: Reaction Biology radiometric kinase selectivity test; assay type: biochemical; conditions: 10 μM TF, 10 μM ATP, relative kinase activity
Protocol: (§1) The listed PKs were incubated with 10 μM TF and 10 μM ATP. Next, the relative percentage kinase activity was determined (mean value from n=2). 100% activity was defined as the activity of the respective kinase in the absence of TF. The PK grouping was in accordance with Manning et al. (2002).
(§2) After the inhibitory potency of TF had been able to be established in LNCaP cells, the possibility that TF could be a selective CK2 inhibitor had to be investigated. To this end, the inhibiting effect of TF on 63 isolated human protein kinases (PK) was investigated by the firm “Reaction Biology” (Malvern, Pa., USA). These included representatives of PKs from all main groups of the human kinome (Manning et al., 2002). The results of this investigation are shown in FIG. 8, classified into the main human PK groups. In this series of tests, all of the PKs were each incubated with 10 μM of ATP and 10 μM of TF. In a subsequent radiometric test, the respective kinase activity with respect to a sample without TF was determined. Since the KM values of PK with respect to ATP occasionally differed substantially (Knight and Shokat, 2005), the results only allow a semi-quantitative comparison of inhibition by TF to be made. […] However, the different test parameters, such as substrate and ATP concentration, buffer, etc., must be taken into account and so a direct comparison of the inhibition data as a percentage is not possible at this point. The seven PKs which were inhibited the most strongly (>70%) are listed separately in Table 3.

CK2α′ (CK2a2) = CK2α′ (CK2a2) (Homo sapiens (Human), UniProt P19784); test: as above; assay type: biochemical; conditions: 10 μM TF, 10 μM ATP; read-out: residual activity CK2α′
Protocol: as §1, §2

PAK4 = PAK4 (Homo sapiens (Human), UniProt O96013); test: as above; assay type: biochemical; conditions: 10 μM TF, 10 μM ATP
Protocol: as §1, §2

MAPK14 = MAPK14 (Homo sapiens (Human), UniProt Q16539); test: as above; assay type: biochemical; conditions: 10 μM TF, 10 μM ATP
Protocol: as §1, §2

LCK = LCK (Homo sapiens (Human), UniProt P06239); test: as above; assay type: biochemical; conditions: 10 μM TF, 10 μM ATP, relative kinase activity
Protocol: as §1, §2

SGK1 (d1-59, S422D) = SGK1 (d1-59, S422D) (Homo sapiens (Human), UniProt O00141, S422D); test: as above; assay type: biochemical; conditions: 10 μM TF, 10 μM ATP, relative kinase activity
Protocol: as §1, §2

LBK1 = LBK1 (Homo sapiens (Human), UniProt Q15831); test: as above; assay type: biochemical; conditions: 10 μM TF, 10 μM ATP
Protocol: as §1, §2

KDR/VEGFR2 = KDR/VEGFR2 (Homo sapiens (Human), UniProt P35968); test: as above; assay type: biochemical; conditions: 10 μM TF, 10 μM ATP, relative kinase activity
Protocol: as §1, §2

PKD2/PRKD2 = PKD2/PRKD2 (Homo sapiens (Human), UniProt Q9BZL6); test: as above; assay type: biochemical; conditions: 10 μM TF, 10 μM ATP, relative kinase activity
Protocol: as §1, §2

IRAK4 = IRAK4 (Homo sapiens (Human), UniProt Q9NWZ3); test: as above; assay type: biochemical; conditions: 10 μM TF, 10 μM ATP
Protocol: as §1, §2

FLT4/VEGFR3 = FLT4/VEGFR3 (Homo sapiens (Human), UniProt P35916); test: as above; assay type: biochemical; conditions: 10 μM TF, 10 μM ATP, relative kinase activity
Protocol: as §1, §2

Aurora A = Aurora A (Homo sapiens (Human), UniProt O14965); test: as above; assay type: biochemical; conditions: 10 μM TF, 10 μM ATP, relative kinase activity
Protocol: as §1, §2

CK2α (CK2a) = CK2α (CK2a) (Homo sapiens (Human), UniProt P68400); test: as above; assay type: biochemical; conditions: 10 μM TF, 10 μM ATP; read-out: residual activity CK2α
[5] = tested on: 63 isolated human protein kinases; test: Selectivity profile over 63 isolated human protein kinases; assay type: biochemical; conditions: 10 μM TF, 10 μM ATP
Protocol: as §1
After the inhibitory potency of TF had been able to be established in LNCaP cells, the possibility that TF could be a selective CK2 inhibitor had to be investigated. To this end, the inhibiting effect of TF on 63 isolated human protein kinases (PK) was investigated by the firm “Reaction Biology” (Malvern, Pa., USA). These included representatives of PKs from all main groups of the human kinome (Manning et al., 2002). The results of this investigation are shown in FIG. 8, classified into the main human PK groups. In this series of tests, all of the PKs were each incubated with 10 μM of ATP and 10 μM of TF. In a subsequent radiometric test, the respective kinase activity with respect to a sample without TF was determined. Since the KM values of PK with respect to ATP occasionally differed substantially (Knight and Shokat, 2005), the results only allow a semi-quantitative comparison of inhibition by TF to be made. […]

CK2 holoenzyme, sequence (P68400 whole entry): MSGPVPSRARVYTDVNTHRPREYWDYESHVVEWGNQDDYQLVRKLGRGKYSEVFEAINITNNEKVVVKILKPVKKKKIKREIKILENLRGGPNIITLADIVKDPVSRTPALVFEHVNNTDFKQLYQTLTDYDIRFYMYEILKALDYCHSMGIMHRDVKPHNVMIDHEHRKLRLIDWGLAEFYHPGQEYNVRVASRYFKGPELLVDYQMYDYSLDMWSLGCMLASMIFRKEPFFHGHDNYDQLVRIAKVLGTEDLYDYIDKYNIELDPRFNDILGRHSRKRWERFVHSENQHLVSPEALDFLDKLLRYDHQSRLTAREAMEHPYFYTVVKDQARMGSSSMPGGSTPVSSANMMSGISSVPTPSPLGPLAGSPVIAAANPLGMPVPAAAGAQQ
CK2 holoenzyme, sequence (P67870 whole entry partner): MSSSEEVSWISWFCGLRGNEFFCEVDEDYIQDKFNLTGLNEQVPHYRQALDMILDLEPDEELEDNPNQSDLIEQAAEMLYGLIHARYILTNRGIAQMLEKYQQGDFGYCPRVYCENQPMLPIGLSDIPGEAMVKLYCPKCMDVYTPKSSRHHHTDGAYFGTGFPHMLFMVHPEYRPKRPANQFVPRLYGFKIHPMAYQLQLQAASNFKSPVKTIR
Aurora A, sequence (O14965 whole entry): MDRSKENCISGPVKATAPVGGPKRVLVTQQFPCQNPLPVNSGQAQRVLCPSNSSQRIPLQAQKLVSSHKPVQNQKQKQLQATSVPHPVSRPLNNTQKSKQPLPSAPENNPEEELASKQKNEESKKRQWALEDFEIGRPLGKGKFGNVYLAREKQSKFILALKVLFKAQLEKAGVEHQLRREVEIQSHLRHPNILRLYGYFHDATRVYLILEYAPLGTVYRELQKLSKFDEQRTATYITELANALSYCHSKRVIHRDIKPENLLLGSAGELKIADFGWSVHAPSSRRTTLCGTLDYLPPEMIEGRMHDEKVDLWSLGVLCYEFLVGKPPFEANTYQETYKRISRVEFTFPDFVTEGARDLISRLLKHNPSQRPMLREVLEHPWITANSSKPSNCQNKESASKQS
LBK1, sequence (Q15831 whole entry): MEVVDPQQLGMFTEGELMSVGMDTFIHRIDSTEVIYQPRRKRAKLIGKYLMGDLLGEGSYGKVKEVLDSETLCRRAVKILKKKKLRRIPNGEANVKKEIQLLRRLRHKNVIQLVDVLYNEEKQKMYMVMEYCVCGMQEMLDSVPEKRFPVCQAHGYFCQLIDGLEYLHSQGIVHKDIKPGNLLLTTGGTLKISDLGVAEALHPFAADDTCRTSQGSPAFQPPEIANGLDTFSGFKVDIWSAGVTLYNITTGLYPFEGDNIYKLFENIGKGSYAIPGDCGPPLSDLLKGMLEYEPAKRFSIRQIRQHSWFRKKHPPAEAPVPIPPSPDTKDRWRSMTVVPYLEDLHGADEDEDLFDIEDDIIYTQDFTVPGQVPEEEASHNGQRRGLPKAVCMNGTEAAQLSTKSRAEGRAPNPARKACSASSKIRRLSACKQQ
LBK1, sequence (Q7RTN6 whole entry partner): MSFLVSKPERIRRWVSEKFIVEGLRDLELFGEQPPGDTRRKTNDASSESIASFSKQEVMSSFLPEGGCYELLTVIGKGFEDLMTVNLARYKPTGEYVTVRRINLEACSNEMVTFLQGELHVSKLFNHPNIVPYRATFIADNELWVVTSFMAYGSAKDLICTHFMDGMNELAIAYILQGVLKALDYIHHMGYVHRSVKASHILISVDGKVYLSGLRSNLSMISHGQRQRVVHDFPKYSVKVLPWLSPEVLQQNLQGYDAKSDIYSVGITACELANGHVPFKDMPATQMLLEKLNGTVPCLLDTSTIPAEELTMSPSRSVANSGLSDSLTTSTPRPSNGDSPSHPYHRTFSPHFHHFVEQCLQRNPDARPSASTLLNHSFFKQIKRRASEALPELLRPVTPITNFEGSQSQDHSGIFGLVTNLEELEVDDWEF
LBK1, sequence (Q9Y376 whole entry partner): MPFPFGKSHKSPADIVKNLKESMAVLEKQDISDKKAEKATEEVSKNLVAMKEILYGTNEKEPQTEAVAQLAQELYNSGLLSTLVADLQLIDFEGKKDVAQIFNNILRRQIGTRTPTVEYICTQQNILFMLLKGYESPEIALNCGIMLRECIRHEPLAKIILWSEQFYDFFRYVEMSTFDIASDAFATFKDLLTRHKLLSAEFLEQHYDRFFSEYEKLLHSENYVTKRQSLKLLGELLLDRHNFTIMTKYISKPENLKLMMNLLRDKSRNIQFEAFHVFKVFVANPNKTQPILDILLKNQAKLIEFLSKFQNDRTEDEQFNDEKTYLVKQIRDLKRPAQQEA
KDR/VEGFR2, sequence (P35968 20-1356): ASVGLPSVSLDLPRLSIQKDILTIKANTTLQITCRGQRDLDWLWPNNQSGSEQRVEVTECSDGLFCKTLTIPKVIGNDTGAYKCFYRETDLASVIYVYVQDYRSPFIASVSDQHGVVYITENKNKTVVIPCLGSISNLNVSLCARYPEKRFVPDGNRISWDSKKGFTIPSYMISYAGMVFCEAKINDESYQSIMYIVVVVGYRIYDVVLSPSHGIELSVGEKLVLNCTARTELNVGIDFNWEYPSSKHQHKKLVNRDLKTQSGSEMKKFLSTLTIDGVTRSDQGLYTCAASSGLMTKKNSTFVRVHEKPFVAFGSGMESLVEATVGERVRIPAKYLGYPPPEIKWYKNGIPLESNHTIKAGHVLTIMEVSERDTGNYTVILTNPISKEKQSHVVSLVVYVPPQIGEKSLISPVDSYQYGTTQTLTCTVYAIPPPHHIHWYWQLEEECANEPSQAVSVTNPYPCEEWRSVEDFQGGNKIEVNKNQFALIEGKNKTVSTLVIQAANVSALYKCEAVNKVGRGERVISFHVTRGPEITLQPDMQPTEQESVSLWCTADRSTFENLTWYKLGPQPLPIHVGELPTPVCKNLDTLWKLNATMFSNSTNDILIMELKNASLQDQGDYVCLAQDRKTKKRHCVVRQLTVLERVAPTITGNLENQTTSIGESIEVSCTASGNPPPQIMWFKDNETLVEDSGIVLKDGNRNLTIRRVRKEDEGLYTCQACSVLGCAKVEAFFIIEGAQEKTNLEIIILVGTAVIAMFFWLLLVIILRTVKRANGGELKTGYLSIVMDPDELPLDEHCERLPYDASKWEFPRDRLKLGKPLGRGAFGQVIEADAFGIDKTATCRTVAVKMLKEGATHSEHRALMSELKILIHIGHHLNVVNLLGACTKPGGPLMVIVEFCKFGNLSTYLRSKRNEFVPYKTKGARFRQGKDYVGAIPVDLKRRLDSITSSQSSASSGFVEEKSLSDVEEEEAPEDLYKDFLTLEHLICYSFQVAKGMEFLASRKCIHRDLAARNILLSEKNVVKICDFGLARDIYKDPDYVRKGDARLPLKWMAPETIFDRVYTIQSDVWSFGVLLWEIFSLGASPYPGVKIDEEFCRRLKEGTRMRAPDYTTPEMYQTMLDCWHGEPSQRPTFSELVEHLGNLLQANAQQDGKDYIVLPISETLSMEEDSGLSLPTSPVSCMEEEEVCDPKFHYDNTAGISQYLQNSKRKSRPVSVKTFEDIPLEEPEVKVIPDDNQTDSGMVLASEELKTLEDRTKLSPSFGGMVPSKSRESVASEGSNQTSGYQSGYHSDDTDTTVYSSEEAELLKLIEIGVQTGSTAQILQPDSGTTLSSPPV
PKD2/PRKD2, sequence (Q9BZL6 whole entry): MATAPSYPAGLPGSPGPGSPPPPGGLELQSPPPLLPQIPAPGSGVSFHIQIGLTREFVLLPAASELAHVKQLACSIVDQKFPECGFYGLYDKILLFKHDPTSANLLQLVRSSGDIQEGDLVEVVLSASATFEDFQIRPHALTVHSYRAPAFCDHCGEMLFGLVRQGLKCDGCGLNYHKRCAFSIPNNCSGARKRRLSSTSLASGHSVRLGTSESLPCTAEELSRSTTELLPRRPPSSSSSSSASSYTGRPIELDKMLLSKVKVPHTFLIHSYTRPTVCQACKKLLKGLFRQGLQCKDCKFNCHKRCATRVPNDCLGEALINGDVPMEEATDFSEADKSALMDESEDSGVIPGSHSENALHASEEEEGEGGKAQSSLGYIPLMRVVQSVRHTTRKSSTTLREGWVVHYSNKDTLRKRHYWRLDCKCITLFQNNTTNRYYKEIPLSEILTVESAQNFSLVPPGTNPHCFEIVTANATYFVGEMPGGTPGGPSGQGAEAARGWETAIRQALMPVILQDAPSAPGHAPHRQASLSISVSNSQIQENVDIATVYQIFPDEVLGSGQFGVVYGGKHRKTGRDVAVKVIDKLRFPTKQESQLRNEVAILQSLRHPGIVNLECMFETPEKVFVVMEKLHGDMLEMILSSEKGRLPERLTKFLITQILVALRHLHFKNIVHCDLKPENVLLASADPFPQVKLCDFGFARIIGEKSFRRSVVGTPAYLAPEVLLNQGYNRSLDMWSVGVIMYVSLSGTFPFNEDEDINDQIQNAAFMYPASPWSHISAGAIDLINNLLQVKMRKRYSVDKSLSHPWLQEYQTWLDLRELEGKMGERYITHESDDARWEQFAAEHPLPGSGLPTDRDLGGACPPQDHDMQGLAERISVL
CK2α′ (CK2a2), sequence (P19784 whole entry): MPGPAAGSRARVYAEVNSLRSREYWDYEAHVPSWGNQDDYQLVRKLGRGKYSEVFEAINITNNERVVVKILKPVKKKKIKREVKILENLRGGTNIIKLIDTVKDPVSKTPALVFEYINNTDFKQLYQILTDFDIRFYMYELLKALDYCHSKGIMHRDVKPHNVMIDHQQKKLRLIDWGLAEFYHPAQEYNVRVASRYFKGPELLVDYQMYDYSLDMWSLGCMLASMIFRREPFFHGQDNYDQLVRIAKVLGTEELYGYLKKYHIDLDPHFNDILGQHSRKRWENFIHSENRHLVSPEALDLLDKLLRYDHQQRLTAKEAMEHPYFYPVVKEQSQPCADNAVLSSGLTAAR
CK2α (CK2a), sequence (P68400 whole entry): as the sequence (P68400 whole entry) above

SMILES: O=C(O)Cc1c2ccccc2n2c1[nH]c(=O)c1ccccc12 [IQA, (5-oxo-5,6-dihydroindolo[1,2-a]quinazolin-7-yl) acetic acid]
stability in aqueous media [1]: unstable in aqueous media

SMILES: CC1=C(Br)COc2c1ccc(O)c2Br [DBC, 3,8-dibromo-7-hydroxy-4-methyl-chromene]
IC50 (CK2): 100 nM

SMILES: Brc1c(Br)c(Br)c2[nH]nnc2c1Br [TBB, 4,5,6,7-tetrabrombenzotriazole]
solubility in water [2]: relatively poor solubility in water
viability of LNCaP cells (LNCaP cells; 25 μM, 72 h): no effects were observed
viability at 75 µM (LNCaP cells; 24 h): 90%
viability at 75 µM (LNCaP cells; 48 h): 45%
viability at 75 µM (LNCaP cells; 72 h): 17%
bands of the 89 kDa PARP fragment ([3]; 25 μM): a faint band could be seen at 89 kDa
bands of the 89 kDa PARP fragment ([3]; from 50 μM, 24 h and 48 h): almost identical results
CK2 activity of LNCaP cell lysate ([4]; 75 μM, 24 h, called most probably a rogue result): 90%
endogenous CK2 activity of LNCaP cells [4]: 50%

SMILES: C=CC1=C(C)c2cc3[n-]c(cc4nc(cc5[n-]c(cc1n2)c(C)c5C=C)C(C)=C4CCC(=O)O)c(CCC(=O)O)c3C.[Fe+2] [Haematin]
IC50 (CK2): 550 nM

SMILES: O=c1c2c(O)cccc2oc2c([N+](=O)[O-])ccc(O)c12 [MNX, 1,8-dihydro-4-nitroxanthen-9-one]
IC50 (CK2): 400 nM

CK2-activity at 10 μM (CK2 holoenzyme): 110%^
SMILES: CCOC(=O)c1oc2ccc(OC(C)=O)c(CNC(C)=O)c2c1NC(C)=O [RicFur]

CK2-activity at 10 μM (CK2 holoenzyme): 61%^
SMILES: CC(C)=CC(=O)c1coc2ccc(O)cc12 [Ric149]

SMILES: O=c1cc(-c2ccc(O)cc2)oc2cc(O)cc(O)c12 [apigenin]
IC50 (CK2): ~1000 nM

Activity PIM1 (PIM1): 19.90%
remaining activity at 10 µM (CK2α′ (CK2a2)): 35%
kinase activity PAK4 (PAK4): clear increase in activity
kinase activity MAPK14 (MAPK14): clear increase in activity
Activity LCK (LCK): 29.20%
Activity SGK1 (d1-59, S422D) (SGK1 (d1-59, S422D)): 14.16%
kinase activity LBK1 (LBK1): clear increase in activity
Activity KDR/VEGFR2 (KDR/VEGFR2): 13.05%
Activity PKD2/PRKD2 (PKD2/PRKD2): 20.90%
kinase activity IRAK4 (IRAK4): clear increase in activity
Activity FLT4/VEGFR3 (FLT4/VEGFR3): 19.68%
Activity Aurora A (Aurora A): 11.00%
remaining activity at 10 µM (CK2α (CK2a)): 24%
mode of inhibition (CK2 holoenzyme; IC50 at 8 different ATP concentrations): ATP competitive inhibitor
Ki (CK2 holoenzyme; Y-axis intersection of IC50 vs ATP concentration (8 ATP concentrations), read-out: inhibition constant Ki): 14.7 nM
IC50 (CK2 holoenzyme): 30 nM
SMILES: Cc1ccc(N/C=C2\C(=O)CCc3c2oc2c(Cl)c(Cl)c(O)cc32)cc1 [TF, (Z)-6,7-dichloro-1,4-dihydro-8-hydroxy-4-[(4-methylphenylamino)methylene]-dibenzo[b,d]furan-3(2H)-one]
viability at 25 µM (LNCaP cells; 25 μM, 24 h): 45%
viability at 25 µM (LNCaP cells; 25 μM, 48 h): 37%
viability at 25 µM (LNCaP cells; 25 μM, 72 h): 14%
viability at 50 µM (LNCaP cells; 24 h): 30%
viability at 50 µM (LNCaP cells; 48 h): 15%
viability at 50 µM (LNCaP cells; 72 h): 5%
viability at 75 µM (LNCaP cells; 24 h): 31%
viability at 75 µM (LNCaP cells; 48 h): 12%
viability at 75 µM (LNCaP cells; 72 h): 3%
number of the 63 PK inhibited (reduction in activity of >50%) in addition to CK2α and CK2α′ [5]: twelve
bands of the 89 kDa PARP fragment ([3]; from 50 μM, 24 h and 48 h): increased in intensity in a concentration-dependent manner
endogenous CK2 activity of LNCaP cells [4]: 50%

IC50 (CK2 holoenzyme): 200 nM
SMILES: CC(=O)Oc1c(Cl)c(Cl)c2oc(C(=O)C=C(C)C)c(N)c2c1C#N [Ric152]

IC50 (CK2 holoenzyme): 2400 nM
SMILES: CCOC(=O)c1oc2c(Cl)c(Cl)c(OC(C)=O)c(C#N)c2c1N [Ric138]
